Measurements: patent US6921770B2 (priority 2000, dated 2005)

Each compound was assayed on rice blast fungi.
Assay type: in vivo, Pyricularia grisea

Compound | Inhibiting Ratio (%) (at 250 ppm)
2-(2,4-dichloromethylphenylimino)-3-methyl-4-[N-(3-chlorophenyl)carbamoylmethyl]-1,3-thiazol-4-ine hydrobromide [Compound 60] | 100
2-(2,4-difluorophenylimino)-3-methyl-4-[N-(methoxyphenyl)carbamoylmethyl]-1,3-thiazol-4-ine [Compound 340] | 94
2-(2-fluorophenylimino)-3-methyl-4-[N-(methoxyphenyl)carbamoylmethyl]-1,3-thiazol-4-ine [Compound 338] | 97
2-(3-chloro-4-fluorophenylimino)-3-methyl-4-[N-(methoxyphenyl)carbamoylmethyl]-1,3-thiazol-4-ine [Compound 336] | 96
2-(3-fluorophenylimino)-3-methyl-4-[N-(methoxyphenyl)carbamoylmethyl]-1,3-thiazol-4-ine [Compound 337] | 95
Br.Cn1c(CC(=O)Nc2ccccc2)csc1=Nc1cccc(C(F)(F)F)c1 [Compound 1, 2-(3-trifluoromethylphenylimino)-3-methyl-4-(N-phenylcarbamoylmethyl)-1,3-thiazol-4-ine hydrobromide] | 75
Br.Cn1c(CC(=O)Nc2ccccc2)csc1=Nc1ccc(C(F)(F)F)cc1 [Compound 2, 2-(4-trifluoromethylphenylimino)-3-methyl-4-(N-phenylcarbamoylmethyl)-1,3-thiazol-4-ine hydrobromide] | 86
Br.Cn1c(CC(=O)Nc2ccccc2)csc1=Nc1ccc(Oc2ccccc2)cc1 [Compound 3, 2-(4-phenoxyphenylimino)-3-methyl-4-(N-phenylcarbamoylmethyl)-1,3-thiazol-4-ine hydrobromide] | 95
Br.Cc1ccc(NC(=O)Cc2csc(=Nc3cc(Cl)cc(Cl)c3)n2C)cc1 [Compound 4, 2-(3,5-dichlorophenylimino)-3-methyl-4-[N-(4-methylphenyl)carbamoylmethyl]-1,3-thiazol-4-ine hydrobromide] | 83
Br.Cc1ccc(NC(=O)Cc2csc(=Nc3cccc(C(F)(F)F)c3)n2C)cc1 [Compound 6, 2-(3-trifluoromethylphenylimino)-3-methyl-4-[N-(4-methylphenyl)carbamoylmethyl]-1,3-thiazol-4-ine hydrobromide] | 99
Br.Cn1c(CC(=O)Nc2cccc(C(F)(F)F)c2)csc1=Nc1cccc(C(F)(F)F)c1 [Compound 7, 2-(3-trifluoromethylphenylimino)-3-methyl-4-[N-(3-trifluoromethylphenyl)carbamoylmethyl]-1,3-thiazol-4-ine hydrobromide] | 97
Br.Cn1c(CC(=O)Nc2cccc(C(F)(F)F)c2)csc1=Nc1ccc(C(F)(F)F)cc1 [Compound 8, 2(4-trifluoromethylphenylimino)-3-methyl-4-[N-(3-trifluoromethylphenyl)carbamoylmethyl]-1,3-thiazol-4-ine hydrobromide] | 90
Br.Cc1ccc(NC(=O)Cc2csc(=Nc3ccc(Oc4ccccc4)cc3)n2C)cc1 [Compound 13, 2-(4-phenoxyphenylimino)-3-methyl-4-[N-(4-methylphenyl)carbamoylmethyl]-1,3-thiazol-4-ine hydrobromide] | 99
Br.Cc1ccc(NC(=O)Cc2csc(=Nc3ccc(C(F)(F)F)cc3)n2C)cc1 [Compound 14, 2-(4-trifluoromethylphenylimino)-3-methyl-4-[N-(4-methylphenyl)carbamoylmethyl]-1,3-thiazol-4-ine hydrobromide] | 99
Br.Cc1ccc(NC(=O)Cc2csc(=Nc3cccc([N+](=O)[O-])c3)n2C)cc1 [Compound 15, 2-(3-nitrophenylimino)-3-methyl-4-[N-(4-methylphenyl)carbamoylmethyl]-1,3-thiazol-4-ine hydrobromide] | 91
Br.Cc1ccc(NC(=O)Cc2csc(=Nc3ccc([N+](=O)[O-])cc3)n2C)cc1 [Compound 16, 2-(4-nitrophenylimino)-3-methyl-4-[N-(4-methylphenyl)carbamoylmethyl]-1,3-thiazol-4-ine hydrobromide] | 100
Br.Cn1c(CC(=O)Nc2cccc(Cl)c2)csc1=Nc1cccc([N+](=O)[O-])c1 [Compound 18, 2-(3-nitrophenylimino)-3-methyl-4-[N-(3-chlorophenyl)carbamoylmethyl]-1,3-thiazol-4-ine hydrobromide] | 93
Br.Cn1c(CC(=O)Nc2cccc(Cl)c2)csc1=Nc1cccc(C(F)(F)F)c1 [Compound 19, 2-(3-trifluoromethylphenylimino)-3-methyl-4-[N-(3-chlorophenyl)carbamoylmethyl]-1,3-thiazol-4-ine hydrobromide] | 91

Compound | Inhibiting Ratio (%) (at 250 ppm)
Br.Cn1c(CC(=O)Nc2cccc(Cl)c2)csc1=Nc1ccc(C(F)(F)F)cc1 [Compound 20, 2-(4-trifluoromethylphenylimino)-3-methyl-4-[N-(3-chlorophenyl)carbamoylmethyl]-1,3-thiazol-4-ine hydrobromide] | 91
Br.Cn1c(CC(=O)Nc2cccc(Cl)c2)csc1=Nc1cc(Cl)cc(Cl)c1 [Compound 21, 2-(3,5-dichlorophenylimino)-3-methyl-4-[N-(3-chlorophenyl)carbamoylmethyl]-1,3-thiazol-4-ine hydrobromide] | 88
Br.CC(C)=CCOc1cc(N=c2scc(CC(=O)Nc3ccccc3)n2C)ccc1Cl [Compound 22, 2-(4-chloro-3-(3,3-dimethylallyloxy)phenylimino)-3-methyl-4-(N-phenylcarbamoylmethyl)-1,3-thiazol-4-ine hydrobromide] | 97
Br.CC(C)OC(=O)c1cc(N=c2scc(CC(=O)Nc3ccccc3)n2C)ccc1Cl [Compound 23, 2-(4-chloro-3-isopropyloxycarbonylphenylimino)-3-methyl-4-(N-phenylcarbamoylmethyl)-1,3-thiazol-4-ine hydrobromide] | 96
Br.Cc1ccc(Cl)cc1N=c1scc(CC(=O)Nc2ccccc2)n1C [Compound 24, 2-(5-chloro-2-methylphenylimino)-3-methyl-4-(N-phenylcarbamoymethyl)-1,3-thiazol-4-ine hydrobromide] | 97
Br.Cc1cc(Cl)ccc1N=c1scc(CC(=O)Nc2ccccc2)n1C [Compound 25, 2-(4-chloro-2-methylphenylimino)-3-methyl-4-(N-phenylcarbamoylmethyl)-1,3-thiazol-4-ine hydrobromide] | 100
Br.Cc1cc(Br)ccc1N=c1scc(CC(=O)Nc2ccccc2)n1C [Compound 26, 2-(4-bromo-2-methylphenylimino)-3-methyl-4-(N-phenylcarbamoylmethyl)-1,3-thiazol-4-ine hydrobromide] | 100
Br.COc1ccccc1N=c1scc(CC(=O)Nc2ccc(C)cc2)n1C [Compound 28, 2-(2-methoxyphenylimino)-3-methyl-4-[N-(4-methylphenyl)carbamoylmethyl]-1,3-thiazol-4-ine hydrobromide] | 100
Br.COc1ccc(N=c2scc(CC(=O)Nc3ccc(C)cc3)n2C)cc1 [Compound 29, 2-(4-methoxyphenylimino)-3-methyl-4-[N-(4-methylphenyl)carbamoylmethyl]-1,3-thiazol-4-ine hydrobromide] | 100
Br.CCCCc1ccc(N=c2scc(CC(=O)Nc3ccc(C)cc3)n2C)cc1 [Compound 30, 2-[4-(n-butyl)phenylimino]-3-methyl-4-[N-(4-methylphenyl)carbamoylmethyl]-1,3-thiazol-4-ine hydrobromide] | 100
Br.Cc1ccc(NC(=O)Cc2csc(=Nc3ccc(Cl)cc3C)n2C)cc1 [Compound 32, 2-(4-chloro-2-methylphenylimino)-3-methyl-4-[N-(4-methylphenyl)carbamoylmethyl]-1,3-thiazol-4-ine hydrobromide] | 100
Br.Cc1ccc(NC(=O)Cc2csc(=Nc3ccc(Br)cc3C)n2C)cc1 [Compound 33, 2-(4-bromo-2-methylphenylimino)-3-methyl-4-[N-(4-methylphenyl)carbamoylmethyl]-1,3-thiazol-4-ine hydrobromide] | 100
Br.Cc1ccc(NC(=O)Cc2csc(=Nc3cc(Cl)ccc3C)n2C)cc1 [Compound 34, 2-(5-chloro-2-methylphenylimino)-3-methyl-4-[N-(4-methylphenyl)carbamoylmethyl]-1,3-thiazol-4-ine hydrobromide] | 100
Br.Cc1ccc(NC(=O)Cc2csc(=Nc3ccc(C)c(Cl)c3)n2C)cc1 [Compound 35, 2-(3-chloro-4-methylphenylimino)-3-methyl-4[N-(4-methylphenyl)carbamoylmethyl]-1,3-thiazol-4-ine hydrobromide] | 100
Br.COc1ccc(N=c2scc(CC(=O)Nc3cccc(C(F)(F)F)c3)n2C)cc1 [Compound 36, 2-(4-methoxyphenylimino)-3-methyl-4-[N-(3-trifluoromethylphenyl)carbamoylmethyl]-1,3-thiazol-4-ine hydrobromide] | 98
Br.Cn1c(CC(=O)Nc2ccccc2)csc1=Nc1ccc(Cl)c(C(F)(F)F)c1 [Compound 37, 2-(4-chloro-3-trifluoromethylphenylimino)-3-methyl-4-(N-phenylcarbamoylmethyl)-1,3-thiazol-4-ine hydrobromide] | 100
Br.Cn1c(CC(=O)Nc2ccccc2)csc1=Nc1ccc(OC(F)(F)F)cc1 [Compound 39, 2-(4-trifluoromethoxyphenylimino)-3-methyl-4-(N-phenylcarbamoylmethyl)-1,3-thiazol-4-ine hydrobromide] | 99
Br.Cn1c(CC(=O)Nc2ccccc2)csc1=Nc1ccc(Cl)cc1F [Compound 42, 2-(4-chloro-2-fluorophenylimino)-3-methyl-4-(N-phenylcarbamoylmethyl)-1,3-thiazol-4-ine hydrobromide] | 100
